From ChEMBL document CHEMBL5241106, “Discovery of a Dual Tubulin and Poly(ADP-Ribose) Polymerase-1 Inhibitor by Structure-Based Pharmacophore Modeling, Virtual Screening, Molecular Docking, and Biological Evaluation” (J Med Chem, 2021)
The source made the active and inactive calls. The calls are words filed in the database; no cut-off is given here.

Columns and labels:
[1] = tested on: MDA-MB-231; assay: Induction of apoptosis in human MDA-MB-231 cells assessed as late apoptotic cells at 2.5 uM incubated for 48 hrs by Annexin V-FITC/PI staining based flow cytometry (reference value: 5.06%); type: functional
[2] = Toxicity in BALB/c mouse xenografted with human MDA-MB-231 cells assessed as effect on platelet count at 1 to 5 mg/kg, ip administered every 4 days for 7 times measured at 48 hrs post-last administration; type: organism-based; settings: in vivo, 720 h, dose 1-5 mg/kg, time 30 day
[3] = target: Tubulin; assay: Inhibition of tubulin polymerization (unknown origin) by turbidimetric analysis; type: protein-complex assay, Homo sapiens; settings: read-out: IC50
[4] = […] of angiogenesis in human HUVEC cells assessed as inhibition of capillary tube formation at 12.5 uM incubated for 8 hrs by inverted microscopic analysis; type: functional; set-up: scale not given: the % may be the effect or the level left
[5] = tested on: MDA-MB-231; assay: Induction of apoptosis in human MDA-MB-231 cells assessed as viable cells at 0.5 uM incubated for 48 hrs by Annexin V-FITC/PI staining based flow cytometry (reference value: 91.4%); type: functional; settings: read-out: Activity
[6] = target: T1, Tubulin (Homo sapiens) (UniProt P68371+Q9H4B7+P0DPH7+P68366+Q13509+Q71U36+P04350+Q3ZCM7+P07437+P68363+Q9BQE3+Q6PEY2+Q13885+Q9BVA1+Q9BUF5); assay: Inhibition of tubulin polymerization (unknown origin) at 10 uM by turbidimetric analysis; type: protein-complex assay
[7] = target: CDK4/Cyclin D3 (Homo sapiens, UniProt P11802); assay: Inhibition of CDK4/Cyclin D3 (unknown origin); type: protein-complex assay
[8] = Toxicity in BALB/c mouse xenografted with human MDA-MB-231 cells assessed as effect on RBC count at 1 to 5 mg/kg, ip administered every 4 days for 7 times measured at 48 hrs post-last administration; type: organism-based, Erythrocyte; settings: in vivo, 720 h, dose 1-5 mg/kg, time 30 day
[9] = tested on: MDA-MB-231; assay: Induction of apoptosis in human MDA-MB-231 cells assessed as viable cells at 2.5 uM incubated for 48 hrs by Annexin V-FITC/PI staining based flow cytometry (reference value: 91.4%); type: functional; settings: read-out: Activity
[10] = tested on: HUVEC; assay: […] of angiogenesis in human HUVEC cells assessed as inhibition of capillary tube formation incubated for 8 hrs by inverted microscopic analysis; type: functional, cell-based; settings: dose 0.5-12.5 µM
[11] = tested on: SK-OV-3; assay: Cytotoxicity against human SK-OV-3 cells assessed as inhibition of cell growth incubated for 72 hrs by MTT assay; type: functional, cell-based; settings: SK-OV-3, 72 h
[12] = target: Poly [ADP-ribose] polymerase 1 (Homo sapiens, UniProt P09874); assay: Inhibition of PARP1 (unknown origin) using [3H]NAD+ as substrate incubated for 15 mins by scintillation counting analysis; settings: read-out: IC50
[13] = tested on: MDA-MB-231; assay: Induction of cell cycle arrest in human MDA-MB-231 cells assessed as increase in p-cdc2 expression at 0.5 to 12.5 uM incubated for 48 hrs by Western blot analysis; type: functional, cell-based; settings: dose 0.5-12.5 µM
[14] = tested on: HepG2; assay: Cytotoxicity against human HepG2 cells assessed as inhibition of cell growth incubated for 72 hrs by MTT assay; type: functional, cell-based; settings: HepG2, 72 h
[15] = tested on: MDA-MB-231; assay: Induction of apoptosis in human MDA-MB-231 cells assessed as viable cells at 12.5 uM incubated for 48 hrs by Annexin V-FITC/PI staining based flow cytometry (reference value: 91.4%); type: functional; settings: read-out: Activity
[16] = tested on: MDA-MB-231; assay: Induction of apoptosis in human MDA-MB-231 cells assessed as increase in cleaved PARP level at 0.5 to 12.5 uM incubated for 48 hrs by western blot analysis; type: functional, cell-based; settings: dose 0.5-12.5 µM
[17] = tested on: MDA-MB-231; assay: Induction of apoptosis in human MDA-MB-231 cells assessed as early apoptotic cells at 2.5 uM incubated for 48 hrs by Annexin V-FITC/PI staining based flow cytometry (reference value: 1.71%); type: functional
[18] = target: Phosphatidylinositol 4,5-bisphosphate 3-kinase catalytic subunit gamma isoform (Homo sapiens, UniProt P48736); assay: Inhibition of PI3KCG (unknown origin)
[19] = tested on: MDA-MB-231; assay: Induction of apoptosis in human MDA-MB-231 cells assessed as apoptotic body formation by measuring change in cell morphology with disruption of cell nuclei incubated for 24 hrs by DAPI staining based confocal laser microscopy; type: functional; settings: dose 0.5-12.5 µM
[20] = target: Serine/threonine-protein kinase pim-1 (Homo sapiens, UniProt P11309); assay: Inhibition of PIM-1 (unknown origin)
[21] = tested on: MDA-MB-231; assay: Induction of cell cycle arrest in human MDA-MB-231 cells assessed as proportion of cells at G2/M phase at 2.5 uM incubated for 48 hrs by propidium iodide staining based flow cytometry (reference value: 9.81%); type: functional
[22] = tested on: MDA-MB-231; assay: Anticancer activity against human MDA-MB-231 cells xenografted in BALB/c mouse assessed as reduction in tumor volume at 5 mg/kg, ip administered for every 4 days for 7 times; type: functional, organism-based; settings: time 28.0 day
[23] = tested on: MDA-MB-231; assay: Induction of apoptosis in human MDA-MB-231 cells assessed as necrotic cells at 0.5 uM incubated for 48 hrs by Annexin V-FITC/PI staining based flow cytometry (reference value: 1.86%); type: functional
[24] = tested on: MDA-MB-231; assay: Induction of apoptosis in human MDA-MB-231 cells assessed as late apoptotic cells at 0.5 uM incubated for 48 hrs by Annexin V-FITC/PI staining based flow cytometry (reference value: 5.06%); type: functional
[25] = target: T1, Tubulin (Homo sapiens); assay: Inhibition of tubulin polymerization in human MCF-10A cells assessed as destruction of normal microtubule network at 0.5 to 12.5 uM incubated for 48 hrs by immunofluorescence assay; type: cell-based; settings: dose 0.5-12.5 µM
[26] = tested on: MDA-MB-231; assay: Induction of apoptosis in human MDA-MB-231 cells assessed as necrotic cells at 12.5 uM incubated for 48 hrs by Annexin V-FITC/PI staining based flow cytometry (reference value: 1.86%); type: functional
[27] = Toxicity in BALB/c mouse xenografted with human MDA-MB-231 cells assessed as effect on WBC count at 1 to 5 mg/kg, ip administered every 4 days for 7 times measured at 48 hrs post-last administration; type: organism-based; settings: in vivo, 720 h, dose 1-5 mg/kg, time 30 day
[28] = tested on: MCF-10A; assay: Induction of cell cycle arrest in human MCF-10A cells at 0.5 to 12.5 uM incubated for 48 hrs by propidium iodide staining based flow cytometry; type: toxicity; settings: dose 0.5-12.5 µM
[29] = tested on: MDA-MB-231; assay: Inhibition of colony formation in human MDA-MB-231 cells measured after 10 days by crystal violet staining based analysis; type: functional, cell-based; settings: dose 0.5-12.5 µM, time 10.0 day
[30] = target: Tubulin (Bos taurus) (UniProt Q6B856+Q862L2+Q862F3); assay: Inhibition of [3H]colchicine binding to tubulin to bovine brain tubulin at 5 to 50 uM by competitive binding assay; type: tissue-based; settings: dose 5-50 µM
[31] = Toxicity in BALB/c mouse xenografted with human MDA-MB-231 cells assessed as change in spleen morphological changes at 1 to 5 mg/kg, ip administered every 4 days for 7 times measured at 48 hrs post-last administration by H and E staining based fluorescence microscopic analysis; type: organism-based; settings: in vivo, 720 h, dose 1-5 mg/kg, time 30 day
[32] = tested on: HeLa; assay: Cytotoxicity against human HeLa cells assessed as inhibition of cell growth incubated for 72 hrs by MTT assay; type: functional, cell-based
[33] = tested on: MDA-MB-231; assay: Induction of apoptosis in human MDA-MB-231 cells assessed as early apoptotic cells at 0.5 uM incubated for 48 hrs by Annexin V-FITC/PI staining based flow cytometry (reference value: 1.71%); type: functional

In the case of O=c1[nH]c(/C=C/c2cccc(F)c2)nc2ccccc12, the Activity [1] is reported as 6.62%, the Activity [2] is reported as “Non-Toxic” and the IC50 [3] is reported as 0.94 µM. For the same compound, the Activity [4] was 100%, the viability at 0.5 µM [5] was 90.6% and the inhibition [6] was 91%. The IC50 [7] was over 10 µM, the Activity [8] was “Non-Toxic” and the viability at 2.5 µM [9] was 90.2%. For the same compound, the Activity [10] was “Dose-Dependent Effect”, the IC50 [11] was 1.7 µM and the IC50 [12] was 0.48 µM. The Activity [13] was “Active”, the IC50 [14] was 0.9 µM and the viability at 12.5 µM [15] was 83.4%. The Activity [16] was “Active”, the Activity [17] was 2.23% and the IC50 [18] was over 10 µM. For the same compound, the Activity [19] was “Dose-Dependent Effect”, the IC50 [20] was over 10 µM and the Activity [21] was 33.56%. The Activity [22] was “Active”, the Activity [23] was 0.88% and the Activity [24] was 6.39%. The inhibition [25] was “inactive”, the Activity [26] was 4.29% and the Activity [27] was “Non-Toxic”. For the same compound, the Activity [28] was “Non-Toxic”, the inhibition [29] was “Dose-Dependent Effect” and the inhibition [30] was “Active”. For the same compound, the Activity [31] was “Non-Toxic”, the IC50 [32] was 1.5 µM and the Activity [33] was 2.16%.
